Common to all, as to format: in vivo
Assay [1] concerns Abutilon theophrasti (ABUTH). Description: Pre-emergence herbicidal glasshouse test (Table B1). The settings on record: applied at 125 g/ha, evaluated after 13 days. An outline of the steps:
(§1)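 Plants were grown in standard soil under controlled glasshouse conditions (24/16° C, 14 hours light, 65% humidity) and treated by spraying at 500 g/h unless otherwise indicated. Percentage damage was evaluated after 13 days and expressed on a five-point scale.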

The test system of assay [2] is Setaria faberi (SETFA). The assay is described as above. The following applies: applied at 125 g/ha, evaluated after 13 days. An outline of the steps:
as §1

In assay [3] the test system is Ipomoea hederacea (IPOHE). The assay is described as above. The settings on record: applied at 125 g/ha, evaluated after 13 days. An outline of the steps:
as §1

The test system of assay [4] is Echinochloa crus-galh (ECHCG). The assay is described as above. The settings on record: applied at 125 g/ha, evaluated after 13 days. A digest of the protocol:
as §1

Assay [5] concerns Amaranthus retoflexus (AMARE). The assay is described as above. The following applies: applied at 125 g/ha, evaluated after 13 days. A digest of the protocol:
as §1

Assay [6] concerns SINAR (Sinapis arvensis). Nature of the assay: Comparative test, PRE application (Table B2). The following applies: evaluated after 14 days. The method, then: (§2) TABLE B2—COMPARATIVE TEST
(§3) Seeds of test species were sown in standard soil in pots. After cultivation for one day under controlled conditions in a glasshouse (at 24/16° C., day/night; 14 hours light; 65% humidity), the plants were sprayed with an aqueous spray solution derived from the formulation of the technical active ingredient in 0.6 ml acetone and 45 ml formulation solution containing 10.6% Emulsogen EL (Registry number 61791-12-6), 42.2% N-methyl pyrrolidone, 42.2% dipropylene glycol monomethyl ether (CAS RN 34590-94-8) and 0.2% X-77 (CAS RN 11097-66-8). The test plants were then grown in a glasshouse under controlled conditions in a glasshouse (at 24/16° C., day/night; 14 hours light; 65% humidity) and watered twice daily. After 14 days, the test was evaluated (100=total damage to plant; 0=no damage to plant).
(§4) Test species: ABUTH (Abutilon theophrasti); BRO′I′L (Bromus tectorum); ECHCG (Echinochloa crus-galli); SINAR (Sinapis arvensis).

Assay [7] has as its system BROTE (Bromus tectorum). Description: Comparative test, PRE application (Table B2). The following applies: evaluated after 14 days. The protocol:
as §2, §3, §4

Assay [8] concerns ABUTH (Abutilon theophrasti). Nature of the assay: Comparative test, PRE application (Table B2). The settings on record: evaluated after 14 days. The protocol:
as §2, §3, §4

Assay [9] has as its system ECHCG (Echinochloa crus-galli). Nature of the assay: Comparative test, PRE application (Table B2). The settings on record: evaluated after 14 days. The method, then: as §2, §3, §4
Assay [10] has as its system Abutilon theophrasti (ABUTH). Description: Post-emergence herbicidal glasshouse test (Table B1). The settings on record: applied at 125 g/ha, evaluated after 13 days. An outline of the steps: as §1
Assay [11] concerns Setaria faberi (SETFA). The assay is described as above. The following applies: applied at 125 g/ha, evaluated after 13 days. A digest of the protocol: as §1
Assay [12] deals with Ipomoea hederacea (IPOHE). The assay is described as above. The following applies: applied at 125 g/ha, evaluated after 13 days. A digest of the protocol:
as §1

Assay [13] deals with Echinochloa crus-galh (ECHCG). The description is as above. The settings on record: applied at 125 g/ha, evaluated after 13 days. An outline of the steps:
as §1

Assay [14] relates to Amaranthus retoflexus (AMARE). Described as above. The following applies: applied at 125 g/ha, evaluated after 13 days. An outline of the steps: as §1

As to `Cn1nnnc1NC(=O)c1ccc(OC(F)(F)F)c(NC(=O)c2ccccn2)c1Cl` [Compound 1.012, N-[2-chloro-3-[(1-methyltetrazol-5-yl)carbamoyl]-6-(trifluoromethoxy)phenyl]pyridine-2-carboxamide], in [1], the “PRE Application ABUTH, percentage damage on five-point scale” value is listed as 5 (5=80-100%). Besides, the “PRE Application SETFA, percentage damage on five-point scale” value in assay [2] is 5 (5=80-100%). In addition, the “PRE Application IPOHE, percentage damage on five-point scale” value in assay [3] was 4 (4=60-79%). The “PRE Application ECHCG, percentage damage on five-point scale” value in [4] is given as 5 (5=80-100%). Besides, the “PRE Application AMARE, percentage damage on five-point scale” value in assay [5] is given as 5 (5=80-100%). Also, the “damage to plant SINAR (100=total damage to plant; 0=no damage to plant)” value in assay [6] (30 g/ha) was 0; in assay [6] (130 g/ha) it was 70; in assay [6] (250 g/ha) it was 80. Also, the “damage to plant BROTE (100=total damage to plant; 0=no damage to plant)” value in assay [7] (30 g/ha) was 0; in assay [7] (130 g/ha), 0; in [7] (250 g/ha), 70. The “damage to plant ABUTH (100=total damage to plant; 0=no damage to plant)” value in assay [8] (30 g/ha) is given as 0; in assay [8] (130 g/ha), 0; in assay [8] (250 g/ha) it was 10. The “damage to plant ECHCG (100=total damage to plant; 0=no damage to plant)” value worked out at 10 in assay [9] (30 g/ha), 30 in assay [9] (130 g/ha) and 30 in assay [9] (250 g/ha). Further, the “POST Application ABUTH, percentage damage on five-point scale” value in [10] was 4 (4=60-79%). The “POST Application SETFA, percentage damage on five-point scale” value in assay [11] was 4 (4=60-79%). In addition, the “POST Application IPOHE, percentage damage on five-point scale” value in assay [12] is recorded as 4 (4=60-79%). The “POST Application ECHCG, percentage damage on five-point scale” value in [13] is recorded as 3 (3=40-59%). In assay [14], the “POST Application AMARE, percentage damage on five-point scale” value is recorded as 4 (4=60-79%).

For the origin of these results see patent publication US20230219904A1 (SYNGENTA CROP PROTECTION AG, priority 2020, published 2023).
